The text below walks through data of patent US4065557A, “Amino sugars and their use in improving the meat:fat ratio in animals” (Bayer Aktiengesellschaft, priority 1974, dated 1977).

In one data set the target is T1, saccharase (Sus scrofa, UniProt P56729).
T1 construct: from tissue; host or cells: mucous membrane of the small intestine of the pig, solubilized according to Borgstrom and Dahlquist 1958
In words: In vitro saccharase test. In kind it is biochemical, pig. As to conditions: for saccharase inhibitor specific activity: sucrose, pH 6.0, 35° C. As to the method: One saccharase inhibitor unit (SIU) is defined as the amount of inhibitor which inhibits two saccharase units to the extent of 50%. One saccharase unit (SU) is the amount of enzyme which under the test conditions specified splits 1 μmol of sucrose to glucose and fructose per minute. The μmols of glucose formed are determined quantitatively by means of the glucose oxidase reaction under conditions under which a further splitting of the sucrose by the saccharase no longer takes place. To carry out the test, 0.05 ml of solubilized saccharase [from the mucous membrane of the small intestine of the pig, according to B. Borgstrom, A. Dahlquist, Acta Chem. Scand. […] The mixture is equilibrated for 10 minutes at 35° C and 0.1 ml of an 0.05 M sucrose solution in 0.1 m sodium maleate buffer of pH 6.0, pre-warmed to 35° C, is then added. The mixture is incubated for 20 minutes at 35° C, the saccharase reaction is stopped by addition of 1 ml of glucose oxidase reagent, and the incubation is continued for a further 30 minutes at 35° C. […] Thereafter, 1 ml of 50% strength H2 SO4 is added and a measurement carried out at 545 nm against a corresponding blank.

For another data set, the system named is starch digestion. In words: In vivo starch digestion (starch feeding test).
The target of a further data set is T2, pancreas-α-amylase (Sus scrofa, UniProt P00690).
T2 sequence (P00690 16-511): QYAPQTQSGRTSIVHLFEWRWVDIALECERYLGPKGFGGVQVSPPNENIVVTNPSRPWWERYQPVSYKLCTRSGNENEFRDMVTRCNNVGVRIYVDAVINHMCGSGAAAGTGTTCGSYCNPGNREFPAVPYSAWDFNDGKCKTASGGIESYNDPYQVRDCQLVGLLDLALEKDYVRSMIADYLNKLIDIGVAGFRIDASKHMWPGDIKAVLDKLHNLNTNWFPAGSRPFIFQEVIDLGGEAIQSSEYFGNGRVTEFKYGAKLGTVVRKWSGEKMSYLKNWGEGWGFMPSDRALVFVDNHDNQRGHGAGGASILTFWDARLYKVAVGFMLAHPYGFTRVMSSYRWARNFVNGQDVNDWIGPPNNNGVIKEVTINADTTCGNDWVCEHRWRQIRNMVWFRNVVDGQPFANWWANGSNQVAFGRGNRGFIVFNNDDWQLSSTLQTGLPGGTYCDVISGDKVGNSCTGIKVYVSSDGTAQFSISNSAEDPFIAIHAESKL
In words: In vitro amylase test. Conditions: isolated product; starch, pH 6.9, 35° C. The data set is classed as biochemical. As to the method:
One amylase unit (AU) is the amount of enzyme which under the test conditions specified below splits 1 μequivalent of glucoside bonds in the starch per minute. […] To carry out the test, 0.1 ml of amylase solution (20-22 AU/ml) are mixed with 0-10 μg of inhibitor or 0-20 μl of the solution to be tested in 0.4 ml of 0.02 M sodium glycerophosphate buffer/0.001 M CaCl2, pH 6.9, and the mixture is equilibrated for 10-20 minutes in a water bath at 35° C. […] To develop the color, the batch is heated for 5 minutes on a boiling water bath and then cooled, and 10 ml of distilled water are added. The extinction at 540 nm is measured against a correspondingly made-up blank without amylase. […] The percentage inhibition is plotted as a function of the quotient [formula]

The nature of another data set: Solubility. In kind it is physicochemical.

T1 sequence (P56729 with tags, fused parts or gaps limits assumed): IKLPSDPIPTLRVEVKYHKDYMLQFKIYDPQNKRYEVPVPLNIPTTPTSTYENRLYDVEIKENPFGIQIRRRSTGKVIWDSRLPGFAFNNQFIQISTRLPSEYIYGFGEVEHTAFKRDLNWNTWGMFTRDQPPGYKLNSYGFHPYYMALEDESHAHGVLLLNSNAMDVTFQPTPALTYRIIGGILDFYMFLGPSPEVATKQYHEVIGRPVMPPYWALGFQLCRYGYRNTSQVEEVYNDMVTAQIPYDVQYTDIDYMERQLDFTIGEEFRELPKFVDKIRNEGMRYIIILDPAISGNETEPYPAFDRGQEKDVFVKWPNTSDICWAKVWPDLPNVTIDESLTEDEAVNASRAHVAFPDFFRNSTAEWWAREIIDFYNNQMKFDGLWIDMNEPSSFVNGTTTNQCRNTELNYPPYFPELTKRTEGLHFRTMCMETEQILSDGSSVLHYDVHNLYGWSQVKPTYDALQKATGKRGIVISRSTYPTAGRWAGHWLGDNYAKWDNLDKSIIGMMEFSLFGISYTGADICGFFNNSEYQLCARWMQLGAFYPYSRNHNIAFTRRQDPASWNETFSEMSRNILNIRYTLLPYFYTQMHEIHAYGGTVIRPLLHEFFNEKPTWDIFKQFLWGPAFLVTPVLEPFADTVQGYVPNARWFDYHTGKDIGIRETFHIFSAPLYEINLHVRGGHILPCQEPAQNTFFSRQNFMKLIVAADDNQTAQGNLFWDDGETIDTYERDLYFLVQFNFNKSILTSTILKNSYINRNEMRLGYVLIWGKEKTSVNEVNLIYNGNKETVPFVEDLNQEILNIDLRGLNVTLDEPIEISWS
T1 sequence (P56729 with tags, fused parts or gaps partner limits assumed): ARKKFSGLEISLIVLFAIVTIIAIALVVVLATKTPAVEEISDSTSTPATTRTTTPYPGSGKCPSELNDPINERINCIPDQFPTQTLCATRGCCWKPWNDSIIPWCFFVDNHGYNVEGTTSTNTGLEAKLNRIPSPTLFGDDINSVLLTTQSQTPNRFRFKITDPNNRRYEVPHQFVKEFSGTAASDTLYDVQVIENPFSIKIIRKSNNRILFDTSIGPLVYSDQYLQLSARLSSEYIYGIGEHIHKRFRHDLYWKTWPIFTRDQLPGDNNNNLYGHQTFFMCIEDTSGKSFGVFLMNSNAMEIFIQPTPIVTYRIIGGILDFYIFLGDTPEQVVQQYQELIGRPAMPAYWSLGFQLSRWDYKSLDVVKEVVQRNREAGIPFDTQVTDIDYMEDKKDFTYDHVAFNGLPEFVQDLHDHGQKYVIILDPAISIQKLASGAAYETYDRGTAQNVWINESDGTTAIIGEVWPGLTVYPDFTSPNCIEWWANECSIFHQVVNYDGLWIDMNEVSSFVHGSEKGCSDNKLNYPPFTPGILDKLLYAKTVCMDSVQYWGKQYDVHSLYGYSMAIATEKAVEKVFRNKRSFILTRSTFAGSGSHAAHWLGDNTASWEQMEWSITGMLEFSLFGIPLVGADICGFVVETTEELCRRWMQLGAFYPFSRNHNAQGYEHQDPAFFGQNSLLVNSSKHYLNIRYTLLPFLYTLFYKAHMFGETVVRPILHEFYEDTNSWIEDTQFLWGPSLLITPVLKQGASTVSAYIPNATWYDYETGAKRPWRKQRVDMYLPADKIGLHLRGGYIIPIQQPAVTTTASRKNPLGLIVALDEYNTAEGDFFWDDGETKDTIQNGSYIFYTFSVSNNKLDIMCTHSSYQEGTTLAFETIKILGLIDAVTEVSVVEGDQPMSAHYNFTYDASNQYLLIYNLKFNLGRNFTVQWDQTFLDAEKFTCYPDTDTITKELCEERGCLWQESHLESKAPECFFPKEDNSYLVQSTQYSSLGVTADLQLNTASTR

Regarding `C[C@H]1O[C@H](O[C@H]2[C@H](O)[C@@H](O)[C@@H](O[C@H]3[C@H](O)[C@@H](O)[C@@H](O[C@H]4[C@H](O)[C@@H](O)C(O)O[C@@H]4CO)O[C@@H]3CO)O[C@@H]2CO)[C@H](O)[C@@H](O)[C@@H]1N[C@H]1C=C(CO)[C@@H](O)[C@H](O)[C@H]1O` (stereo partly drawn) [isomer of Formula V, O-{4,5-bisdesoxy-4-[1S-(1,4,6/5)-4,5,6-trihydroxy-3-hydroxymethylcyclohex-2-en-1-ylamino]-α-D-glucopyranosyl}-(1→4)-O-α-D-glucopyranosyl-(1→4)-O-α-D-glucopyranosyl-(1→4)-D-glycopyranose], the “in vitro saccharase inhibiting activity” value at saccharase (isomer isolated on Dowex 50 W X 4) was 19,000 SIE/g.

Turning to `C[C@H]1O[C@H](O[C@H]2[C@H](O)[C@@H](O)[C@@H](O[C@H]3[C@H](O)[C@@H](O)C(O)O[C@@H]3CO)O[C@@H]2CO)[C@H](O)[C@@H](O)[C@@H]1N[C@H]1C=C(CO)[C@@H](O)[C@H](O)[C@H]1O` (stereo partly drawn) [compound having 2 glucose units, O-{4,6-bisdesoxy-4-[1 S-(1,4,6/5)-4,5,6-trihydroxy-3-hydroxymethylcyclohex-2-en-1-ylamino]-α-D-glucopyranosyl}-(1→4)-O-α-D-glucopyranosyl-(1→4)-D-glucopyranose], in the data set with starch digestion, the “in vivo inhibition of starch digestion (in words)” value is listed as “much higher than would be expected from in vitro amylase inhibition”. In addition, the “in vitro saccharase inhibition (in words)” value on saccharase (in vitro) is given as “most pronounced”. The “saccharase inhibitor specific activity” value at saccharase is on record as 50,000 SIU/g; on saccharase (listed as compound with 2 glucose units), 60,000 SIU/g; at saccharase (listed as compound with 2 units), 68,000 SIU/g; on saccharase (listed as compound with two glucose units), 65,000 SIU/g. Also, at pancreas-α-amylase, the “amylase inhibitor specific activity” value is reported as 0.3 × 10^6 AIU/g. Moreover, the solubility in water entry in the data set “Solubility” (amorphous solid) was “readily water-soluble”.

For the compound `C[C@H]1O[C@H](O[C@H]2[C@H](O)[C@@H](O)C(O)O[C@@H]2CO)[C@H](O)[C@@H](O)[C@@H]1N[C@H]1C=C(CO)[C@@H](O)[C@H](O)[C@H]1O` (stereo partly drawn) [compound having one glucose unit, O-{4,6-bisdesoxy-4-[1 S-(1,4,6/5)-4,5,6-trihydroxy-3-hydroxymethylcyclohex-2-en-1-ylamino]-α-D-glucopyranosyl}-(1→4)-D-glucopyranose], in the data set with starch digestion, the “in vivo inhibition of starch digestion (in words)” value is on record as “much higher than would be expected from in vitro amylase inhibition”. Further, on saccharase (in vitro), the “saccharase inhibition relative to the derivative having two units” value is listed as “only half as much”. In addition, the “saccharase inhibitor specific activity” value at saccharase was 30,000 SIU/g; on saccharase (listed as compound with one glucose unit), 35,000 SIU/g. For the same compound, the “amylase inhibitor specific activity” value on pancreas-α-amylase is listed as 0.3 × 10^6 AIU/g. In “Solubility” (water, dimethylformamide, dimethylsulfoxide, methanol and hot ethanol), the solubility result is recorded as “good solubility”.
